Test results from PMC6264278, “Corydaline Inhibits Multiple Cytochrome P450 and UDP-Glucuronosyltransferase Enzyme Activities in Human Liver Microsomes” (Molecules, 2011).
Read-outs that look alike come from different tables or passages of the source.

Assays:
Format in all cases: in vitro ADME
CYP3A = test: Time- and concentration-dependent inactivation of CYP3A-mediated midazolam hydroxylation in human liver microsomes; settings: probe midazolam (1'-hydroxylation), estimated from kobs vs corydaline concentration (10-150 μM)
Procedure: The inhibitory effects of corydaline toward seven major human CYP isoforms and four major human UGT isoforms were evaluated using cocktail CYP probe substrates and each UGT probe substrate in human liver microsomes, respectively. […] To determine whether midazolam metabolism is inhibited by corydaline, we performed time- and concentration-dependent inactivation assays in human liver microsomes. […] Values for kobs were plotted against corydaline concentration and used for estimation of maximal rates (kinact) and Ki values in human liver microsomes (Figure 2b).

CYP2C8 = target: T1, CYP2C8 (Homo sapiens, UniProt P10632); test: CYP2C8 amodiaquine N-deethylation inhibition, cocktail assay in pooled human liver microsomes; settings: 2.5 μM amodiaquine, no inhibition at 200 μM of corydaline; for IC50 no preincubation, CYP2C8 amodiaquine N-deethylation: pooled human liver microsomes (H161)
T1 construct: using pooled human liver microsomes; tissue BD Gentest Co. H161; host or cells: pooled human liver microsomes
T1 sequence (P10632 1-490): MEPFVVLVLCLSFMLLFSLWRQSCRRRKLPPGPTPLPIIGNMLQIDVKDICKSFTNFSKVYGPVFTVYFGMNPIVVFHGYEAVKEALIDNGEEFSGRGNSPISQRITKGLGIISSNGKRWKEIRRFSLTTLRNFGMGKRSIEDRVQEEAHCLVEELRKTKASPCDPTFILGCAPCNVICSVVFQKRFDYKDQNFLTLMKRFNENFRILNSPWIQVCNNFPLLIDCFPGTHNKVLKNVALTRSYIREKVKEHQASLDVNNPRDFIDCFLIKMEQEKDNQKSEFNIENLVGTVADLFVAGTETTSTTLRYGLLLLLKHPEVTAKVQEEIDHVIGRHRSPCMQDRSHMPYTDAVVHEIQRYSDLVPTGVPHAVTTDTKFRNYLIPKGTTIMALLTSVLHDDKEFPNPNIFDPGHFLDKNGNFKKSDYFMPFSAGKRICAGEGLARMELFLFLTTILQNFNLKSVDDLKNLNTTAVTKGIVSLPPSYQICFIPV
Procedure: (§1) Phenacetin O-deethylase, coumarin 7-hydroxylase, amodiaquine N-deethylase, diclofenac 4-hydroxylase, S-mephenytoin 4-hydroxylase, bufuralol hydroxylase, and midazolam 1’-hydroxylase activities were determined as probe activities for CYP1A2, CYP2A6, CYP2C8, CYP2C9, CYP2C19, CYP2D6, and CYP3A4, respectively, using cocktail incubation and liquid chromatography-tandem mass spectrometry (LC/MS/MS). The incubation mixtures were prepared in a total volume of 200 μL, as follows: pooled human liver microsomes (0.25 mg/mL), 1.3 mM NADPH, 3.3 mM MgCl2, 50 mM potassium phosphate buffer (pH 7.4), and a cocktail of probe substrates and various concentrations of corydaline (1−200 μM). The substrates were used at concentrations approximately equal to their respective Km values: 50 μM phenacetin, 2.5 μM coumarin, 2.5 μM amodiaquine, 10 μM diclofenac, 100 μM S-mephenytoin, 5 μM bufuralol, and 2.5 μM midazolam. After a 3-min pre-incubation period at 37 °C, the reactions were initiated by addition of an NADP generating system and incubated for 20 min at 37 °C in a shaking water bath. After incubation, the reaction was stopped by placement of the tubes on ice and addition of 100 μL of ice-cold methanol containing internal standards (^13C2,^15N-acetaminophen for acetaminophen and N-desethylamodiaquine, d5-7-hydroxycoumarin for 7-hydroxycoumarin, ^13C6-4-hydroxydiclofenac for 4-hydroxydiclofenac, d3-4-hydroxy-mephenytoin for 4-hydroxymephenytoin and hydroxymidazolam, d9-1-hydroxybufuralol for 1-hydroxybufuralol). The incubation mixtures were then centrifuged at 13,000 × g for 5 min. All incubations were performed in triplicate and the mean values were used. […] The reaction was started by addition of a cocktail of CYP probe substrates.
All 7 metabolites produced from the cocktail of CYP isoform-specific substrates were simultaneously determined by LC/MS/MS [25]. […] Quantification was performed by selected reaction monitoring (SRM) of the [M+H]^+ ion and the related product ion for each metabolite. […]

CYP2C19 = target: T2, CYP2C19 (Homo sapiens, UniProt P33261); test: CYP2C19 S-mephenytoin 4'-hydroxylation inhibition in pooled human liver microsomes; settings: for IC50: 100 μM S-mephenytoin, mean ± SD, n = 3
T2 construct: using pooled human liver microsomes; tissue BD Gentest Co. H161; host or cells: pooled human liver microsomes
Procedure: as §1
All 7 metabolites produced from the cocktail of CYP isoform-specific substrates were simultaneously determined by LC/MS/MS [25]. The system consisted of a tandem quadrupole mass spectrometer (TSQ Quantum Access, ThermoFisher Scientific, San Jose, CA, USA) coupled with a Nanospace SI-2 LC system. […] Quantification was performed by selected reaction monitoring (SRM) of the [M+H]^+ ion and the related product ion for each metabolite. […]
Reactions were initiated by addition of NADPH at 37 °C and stopped after 15 min by placement of the incubation tubes on ice and addition of ice-cold methanol (100 μL) containing an internal standard (2.0 μg/mL ^13C6-4-hydroxydiclofenac for diclofenac, 0.5 μg/mL d3-4-hydroxymephenytoin for mephenytoin, or 0.5 μg/mL d9-1-hydroxy-bufuralol for bufuralol). The incubation mixtures were centrifuged at 13,000 × g for 5 min, and aliquots (5 μL) of the supernatants were analyzed by LC/MS/MS. […] Aliquots (5 μL) were analyzed by LC/MS/MS. […]

T2 sequence (P33261 whole entry): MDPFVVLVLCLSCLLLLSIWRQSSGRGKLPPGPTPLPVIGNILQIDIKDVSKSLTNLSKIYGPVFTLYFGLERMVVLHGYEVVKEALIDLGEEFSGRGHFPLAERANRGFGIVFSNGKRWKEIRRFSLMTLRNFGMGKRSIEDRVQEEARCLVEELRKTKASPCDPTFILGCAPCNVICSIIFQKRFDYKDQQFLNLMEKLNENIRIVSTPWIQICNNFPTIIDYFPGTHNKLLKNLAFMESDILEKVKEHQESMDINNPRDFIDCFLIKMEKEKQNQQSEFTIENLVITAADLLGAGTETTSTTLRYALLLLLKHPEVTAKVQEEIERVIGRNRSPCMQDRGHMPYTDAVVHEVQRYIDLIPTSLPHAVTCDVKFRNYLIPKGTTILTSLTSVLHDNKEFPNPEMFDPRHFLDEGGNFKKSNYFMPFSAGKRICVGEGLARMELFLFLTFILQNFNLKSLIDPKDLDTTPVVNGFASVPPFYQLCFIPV

- KI (inactivation) (CYP3A; read-out: apparent Ki of inactivation, CYP3A midazolam hydroxylation): 30 µM
- kinact (CYP3A; read-out: maximal rate of inactivation (kinact), CYP3A midazolam hydroxylation (converted)): 0.00107 s⁻¹
- IC50 no preincubation, CYP2C8 amodiaquine N-deethylation (CYP2C8): negligible inhibition
- IC50 no preincubation, CYP2C8 amodiaquine N-deethylation (CYP2C8; listed as corydaline): No inhibition **
- IC50 with preincubation, CYP2C8 amodiaquine N-deethylation (CYP2C8; pre-incubated 30 min with NADPH): No inhibition **
- inhibition mode, CYP2C19 S-mephenytoin 4'-hydroxylation (CYP2C19; Lineweaver, Dixon and secondary reciprocal plots): competitive
- Ki (CYP2C19; human liver microsomes, 10-40 μM S-mephenytoin): 1.7 ± 0.5 µM
- IC50 (CYP2C19; pooled human liver microsomes (H161), read-out: IC50 no preincubation, CYP2C19 S-mephenytoin 4'-hydroxylation): 11.7 ± 1.4 µM
- IC50 (CYP2C19; pre-incubated 30 min with NADPH, read-out: IC50 with preincubation, CYP2C19 S-mephenytoin 4'-hydroxylation): 19.2 ± 1.8 µM
SMILES: COc1cc2c(cc1OC)C1C(C)c3ccc(OC)c(OC)c3CN1CC2 (stereo not drawn) [Corydaline, 2,3,9,10-tetramethoxy-13-methyl-5,8,13,13a-tetrahydro-6H-isoquino[3,2-a]isoquinoline]
